Patent publication US20230212180A1, “SUBSTITUTED PYRAZINE COMPOUND, PHARMACEUTICAL COMPOSITION COMPRISING SAME, AND USE THEREOF” (Sichuan Kelun-Biotech Biopharmaceutical Co., Ltd., priority 2020, published 2023)

How the values were obtained:
[1] = Pharmacokinetic (PK) studies in Balb/c mouse; assay type: in vivo; conditions: female, Balb/c, mouse, in vivo
Protocol: Test Example 7: Pharmacokinetic (PK) Studies in Balb/c Mouse
The compound of Example 12, Control Compound 1, Control Compound 2, and TNO-155 were administered to female Balb/c mice by intravenous injection (IV) and gavage (PO) respectively to estimate the pharmacokinetic properties. Dosing amounts for IV and PO routes were 1 mg/kg and 10 mg/kg, respectively. The solvent for IV route was 5% DMSO+5% Solutol+90% Saline, and the solvent for PO route was 0.5% MC (sodium methylcellulose). Blood was collected at various time points after IV and PO administration. The blood from the test groups of the compound of Example 12, Control Compound 1, and Control Compound 2 was anticoagulated using EDTA.K2 and preserved at −80° C. The blood from the test groups of TNO-155 was anticoagulated using EDTA.K2 and centrifuged to obtain plasma samples, and the plasma samples were preserved at −80° C.
The blood or plasma samples were subjected to protein precipitation and then to the LC-MS/MS analysis. WinNonlin 6.3 software was used to calculate the pharmacokinetic parameters by non-compartmental model, and the results were listed in Table 7 below.

CYP3A4 = target: T1, CYP3A4 (Homo sapiens, UniProt P08684); test: Biochemical assay for CYP enzyme inhibition, P450-Glo CYP3A4 Screening System; assay type: in vitro ADME; conditions: estimated from percentage inhibition; read-out: IC50 (μM) CYP3A4
T1 construct: purchased Promega
T1 sequence (P08684 whole entry): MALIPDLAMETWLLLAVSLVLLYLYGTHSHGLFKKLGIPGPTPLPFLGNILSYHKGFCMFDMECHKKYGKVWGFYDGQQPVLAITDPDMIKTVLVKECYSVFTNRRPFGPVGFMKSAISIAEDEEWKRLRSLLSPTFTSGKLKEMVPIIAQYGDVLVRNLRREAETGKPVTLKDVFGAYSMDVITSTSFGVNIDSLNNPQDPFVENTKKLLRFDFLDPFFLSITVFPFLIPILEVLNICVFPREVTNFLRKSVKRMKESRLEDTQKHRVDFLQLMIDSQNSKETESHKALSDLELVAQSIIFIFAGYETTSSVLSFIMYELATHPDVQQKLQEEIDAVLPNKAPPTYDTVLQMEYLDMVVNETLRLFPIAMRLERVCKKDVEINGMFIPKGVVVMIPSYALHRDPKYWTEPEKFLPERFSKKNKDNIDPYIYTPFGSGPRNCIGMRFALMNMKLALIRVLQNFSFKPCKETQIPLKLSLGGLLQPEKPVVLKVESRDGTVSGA
Protocol: (§1) Test Example 5: Biochemical Assay for CYP Enzyme (Cytochrome P450) Inhibition
P450-Glo™ CYP3A4 Screening System, (Promega).
(§2) BMG PHERAstar FS Luminescent.
(§3) The experiments were carried out separately according to the instructions of the kits. The steps were as follows:
3.3. Inhibition Against CYP3A4:
(§4) Test group: The test compounds at different concentrations were added into a microplate, and Luciferin-IPA (3 NM), K3PO4 (100 mM), and CYP3A4 (2 nM) were added into each well, and pre-incubated at room temperature for 10 min. Thereafter, an NADPH regeneration system was added. The mixture was reacted at room temperature for 30 min. Finally, an equal volume of detection buffer was added and incubated at room temperature for 20 min, followed by chemiluminescence detection.
(§5) Negative control group: The experimental method for the negative control group was the same as that for the test group, except that the test compound was not added.
Blank control group: The experimental method for the blank control group was the same as that for the test group, except that the test compound was not added and that CYP3A4 was replaced with CYP3A4 Membrance (2 nM).
(§6) Percentage inhibition=(1−(the chemiluminescent signal value of the test compound group at a certain test concentration−the chemiluminescent signal value of the blank control group)/(the chemiluminescent signal value of the negative control group−the chemiluminescent signal value of the blank control group))×100%.
(§7) When the percentage inhibition was between 30% and 80%, a single value or a value range of the half maximal inhibitory concentration (IC50) of the compound against the CYP enzyme was estimated based on the following equation: IC50=X×(1−percentage inhibition)/percentage inhibition, wherein X was the test concentration of the compound.

[2] = Pharmacokinetic (PK) studies in beagle dog; assay type: in vivo; conditions: dog, male beagle dogs, plasma
Protocol: Test Example 8: Pharmacokinetic (PK) Studies in Beagle Dog
(§8) The compound of Example 12, Control Compound 1, Control Compound 2, and TNO-155 were administered to male beagle dogs by intravenous injection (IV) and gavage (PO) respectively to estimate the pharmacokinetic properties. Dosing amounts for IV and PO routes were 0.5 mg/kg and 2.5 mg/kg. The solvent for IV route was 5% DMSO+5% Solutol+90% Saline, and the solvent for PO route was 0.5% MC (sodium methylcellulose). Blood was collected at various time points after IV and PO administration. The blood was anticoagulated using EDTA.K2, and centrifuged to obtain plasma samples. The plasma samples were preserved at −80° C.
The plasma samples were subjected to protein precipitation and then to the LC-MS/MS analysis. WinNonlin 6.3 software was used to calculate the pharmacokinetic parameters by non-compartmental model, and the results were listed in Table 8 below.

CYP1A2 = target: T2, CYP1A2 (Homo sapiens, UniProt P05177); test: Biochemical assay for CYP enzyme inhibition, P450-Glo CYP1A2 Screening System; assay type: in vitro ADME; conditions: estimated from percentage inhibition; read-out: IC50 (μM) CYP1A2
T2 construct: purchased Promega
T2 sequence (P05177 1-516): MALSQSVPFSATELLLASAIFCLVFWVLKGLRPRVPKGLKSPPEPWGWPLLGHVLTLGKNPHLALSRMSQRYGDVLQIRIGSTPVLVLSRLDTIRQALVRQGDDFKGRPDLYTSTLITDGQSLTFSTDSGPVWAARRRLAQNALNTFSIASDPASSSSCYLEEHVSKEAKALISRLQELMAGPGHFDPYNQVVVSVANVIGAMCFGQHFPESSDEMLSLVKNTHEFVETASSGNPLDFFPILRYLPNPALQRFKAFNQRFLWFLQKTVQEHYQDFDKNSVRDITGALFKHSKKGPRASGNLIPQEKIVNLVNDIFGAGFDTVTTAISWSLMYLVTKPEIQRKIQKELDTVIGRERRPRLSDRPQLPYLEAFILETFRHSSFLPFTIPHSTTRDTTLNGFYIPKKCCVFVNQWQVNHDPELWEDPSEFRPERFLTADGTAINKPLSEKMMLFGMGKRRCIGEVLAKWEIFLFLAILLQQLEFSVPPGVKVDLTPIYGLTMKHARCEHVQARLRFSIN
Protocol: as §1
P450-Glo™ CYP1A2 Screening System, (Promega);
as §2, §3
3.1. Inhibition Against CYP1A2:
as §4, with “Luciferin-ME (100 μM),” for “Luciferin-IPA (3 NM),”, “CYP1A2 (0.01 μmol/μL)” for “CYP3A4 (2 nM)”
as §5
Blank control group: The experimental method for the blank control group was the same as that for the test group, except that the test compound was not added and that CYP1A2 was replaced with CYP1A2 Membrance (0.01 μmol/μL).
as §6, §7

CYP2D6 = target: T3, CYP2D6 (Homo sapiens, UniProt P10635); test: Biochemical assay for CYP enzyme inhibition, P450-Glo CYP2D6 Screening System; assay type: in vitro ADME; conditions: estimated from percentage inhibition; read-out: IC50 (μM) CYP2D6
T3 construct: purchased Promega
T3 sequence (P10635 whole entry): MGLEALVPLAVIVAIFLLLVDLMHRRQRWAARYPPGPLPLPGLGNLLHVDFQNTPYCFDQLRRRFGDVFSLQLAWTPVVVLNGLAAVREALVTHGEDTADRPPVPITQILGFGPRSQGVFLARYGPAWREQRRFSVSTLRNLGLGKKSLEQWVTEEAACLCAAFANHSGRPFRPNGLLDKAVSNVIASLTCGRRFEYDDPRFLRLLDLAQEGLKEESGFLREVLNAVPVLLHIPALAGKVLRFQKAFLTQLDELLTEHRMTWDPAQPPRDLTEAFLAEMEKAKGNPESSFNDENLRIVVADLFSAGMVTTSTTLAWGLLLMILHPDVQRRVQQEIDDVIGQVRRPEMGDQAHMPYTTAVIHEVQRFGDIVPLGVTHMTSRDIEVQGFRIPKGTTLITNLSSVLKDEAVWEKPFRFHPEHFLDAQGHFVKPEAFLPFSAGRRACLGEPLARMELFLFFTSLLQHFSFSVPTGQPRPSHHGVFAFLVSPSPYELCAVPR
Protocol: as §1
P450-Glo™ CYP2D6 Screening System, (Promega);
as §2, §3
3.2. Inhibition Against CYP2D6:
Test group: The test compounds at different concentrations were added into a microplate, and Luciferin-ME EGE (3 μM), K3PO4 (100 mM), and CYP2D6 (5 nM) were added into each well, and pre-incubated at room temperature for 10 min. Thereafter, an NADPH regeneration system was added. The mixture was reacted at 37° C. for 30 min. Finally, an equal volume of detection buffer was added and incubated at room temperature for 20 min, followed by chemiluminescence detection.
as §5
Blank control group: The experimental method for the blank control group was the same as that for the test group, except that the test compound was not added and that CYP2D6 was replaced with CYP2D6 Membrance (5 nM).
as §6, §7

[3] = Pharmacokinetic (PK) studies in SD rat; assay type: in vivo; conditions: rat, male SD rats, plasma
Protocol: Test Example 6: Pharmacokinetic (PK) Studies in SD Rat
as §8, with “Example 12 and” for “Example 12,”, “Compound 2” for “Compound 1, Control Compound 2, and TNO-155”, “male SD rats” for “male beagle dogs”, “were 1” for “were 0.5”, “and 5 mg/kg, respectively.” for “and 2.5 mg/kg.”, “DMSO+5% Solutol (polyoxyl 15-hydroxystearate)+90% Saline (physiological saline),” for “DMSO+5% Solutol+90% Saline,”
The plasma samples were subjected to protein precipitation and then to the LC-MS/MS analysis. WinNonlin 6.3 software was used to calculate the pharmacokinetic parameters by non-compartmental model, and the results were listed in Table 6 below.

AUC(0-t) ([1]; iv, 1 mg/kg)	clearance ([1]; iv, 1 mg/kg)	AUC(0-t) ([1]; po, 10 mg/kg)	half-life ([1]; po, 10 mg/kg)	IC50 (CYP3A4)	AUC(0-t) ([2]; IV, 0.5 mg/kg)	clearance ([2]; IV, 0.5 mg/kg)	AUC(0-t) ([2]; PO, 2.5 mg/kg)	half-life ([2]; PO, 2.5 mg/kg)	IC50 (CYP1A2)	IC50 (CYP2D6)	AUC(0-t) ([3]; IV, 1 mg/kg)	Cmax ([3]; IV, 1 mg/kg)	clearance ([3]; IV, 1 mg/kg)	AUC(0-t) ([3]; PO, 5 mg/kg)	Cmax ([3]; PO, 5 mg/kg)	SMILES
2200 ng·h/mL	7.21 mL/min/kg	8690 ng·h/mL	4.61 h	> 10 µM	1220 ng·h/mL	7.08 mL/min/kg	3910 ng·h/mL	10.5 h	> 10 µM	6.96 µM						C[C@@H]1OCC2(CCN(c3ncc(Sc4ccnc(N5CC(O)C5)c4Cl)nc3CO)CC2)[C@@H]1N [Control Compound 1]
576 ng·h/mL	23.2 mL/min/kg	3870 ng·h/mL	5.08 h		614 ng·h/mL	13.2 mL/min/kg	2550 ng·h/mL	12.3 h			696 ng·h/mL	215 ng/mL	24.6 mL/min/kg	2760 ng·h/mL	363 ng/mL	Cc1nc(N2CCC3(CC2)CO[C@@H](C)[C@H]3N)c(CO)nc1Sc1ccnc(N)c1Cl [Control Compound 2]
